According to ChEMBL document CHEMBL1156475, “Efficient inhibition of class A and class D beta-lactamases by Michaelis complexes” (J Biol Chem, 2007):

Key:
[1] = Inhibition of beta lactamase SHV1
[2] = Inhibition of beta lactamase P99
[3] = Inhibition of beta lactamase TEM1
[4] = biological target: Beta-lactamase OXA-1 (Escherichia coli) (UniProt P13661); assay: Inhibition of Escherichia coli beta lactamase OXA-1
Sequence of Beta-lactamase OXA-1 (Escherichia coli) (P13661 whole entry): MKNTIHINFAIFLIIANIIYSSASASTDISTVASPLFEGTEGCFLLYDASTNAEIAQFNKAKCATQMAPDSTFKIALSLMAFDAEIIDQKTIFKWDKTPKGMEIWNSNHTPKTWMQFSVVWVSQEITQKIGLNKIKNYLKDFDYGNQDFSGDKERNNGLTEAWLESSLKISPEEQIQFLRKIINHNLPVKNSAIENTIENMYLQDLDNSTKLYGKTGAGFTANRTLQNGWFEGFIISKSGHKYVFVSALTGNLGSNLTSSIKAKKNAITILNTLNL

## C[C@]1(COC(=O)Cc2ccccc2)[C@H](C(=O)O)N2C(=O)/C(=C/c3ccccn3)[C@H]2S1(=O)=O
[1]
  Kinact: 42 nM
[2]
  IC50: 1 nM
[3]
  IC50: 40 nM
[4]
  Kinact: 1 µM

## C[C@]1(Cn2ccnn2)[C@H](C(=O)O)N2C(=O)C[C@H]2S1(=O)=O
[1]
  Kinact: 330 nM
